Measured values taken from patent US4537723A, “Derivatives of leukotrienes A and C” (The Upjohn Company, priority 1983, dated 1985).

Tested on: SRS-A formation in rat mononuclear cells
Test: SRS-A formation in rat mononuclear cells incubated with cysteine and challenged with a calcium ionophore
Assay type: cell-based
Settings: 10 μg/ml; for inhibition at 10 µg/mL: Rattus norvegicus, read-out: effectiveness in preventing the synthesis of SRS-A
Description: As an example of the SRS-A inhibitory activity of the compounds of this invention, several of these compounds were evaluated in a standard laboratory test. This test is conducted in rat mononuclear cells incubated in the presence of cysteine and challenged with a calcium ionophore (which induces SRS-A formation). In this test system, two of these compounds, the isomers of 1-carboxy-3-N-octylcyclopropane-2-octanoic acid.

SMILES	inhibition at 10 µg/mL	inhibition of the synthesis of SRS-A (rat mononuclear cells, calcium ionophore challenge)
CCCCCCCCC([Se]c1ccccc1)C(O)CCCCCCCC(=O)O (stereo not drawn) [9-Hydroxy-10-Phenylselenyloctadecanoic Acid]	100%	–
CCCCCCCCC(O)C(CCCCCCCC(=O)O)[Se]c1ccccc1 (stereo not drawn) [9-Phenylselenyl-10-Hydroxyoctadecanoic Acid]	100%	–
CCCCCCCCC1C(CCCCCCCC(=O)O)C1C(=O)O (stereo not drawn) [Example 4, 1-Carboxy-3-n-Octylcyclopropane-2-Octanoic Acid]	–	totally inhibited
